Test results from patent US11066447B2, “Aureobasidium derivatives and methods of synthesis” (AureoGen Biosciences, Inc., priority 2016, dated 2021).
Converted amounts (≈) assume the structure as drawn. Like-named read-outs stand apart in the source and are kept apart here. Numbered stars: 1 amine (or outer) side, 2 acyl side, 3 side chain; on linkers, the order of the positions; unused ones are H or OH. Square brackets hold non-standard residues; d marks the D form. Peptide text beside a SMILES is read from it. X29 = CN([C@@H](Cc1cccc(-c2ccc(F)cc2)c1)C(=O)[*:2])[*:1]; X34 = CC[C@@H](C)[C@@H](O[*:1])C(=O)[*:2]; Hmp(2R,3S) = CC[C@H](C)[C@@H](O)C(=O)O; NMeVal(β-OH) = CN[C@H](C(=O)O)C(C)(C)O; NMeF = CN[C@@H](Cc1ccccc1)C(=O)O; aIle = CC[C@@H](C)[C@H](N)C(=O)O; NMeV = CN[C@H](C(=O)O)C(C)C

What was measured:
[1] = system: C. albicans MMX 2000 ATCC 10231; experiment: MIC assay (CLSI microdilution); type: cell-based
Protocol: (§1) Aureobasidin and test compounds (i.e., AbA derivatives of the present invention) were received from Kalexsyn, Inc. (Kalamazoo, Mich.) as powder and were stored at 4° C. until the day of assay. […] amphotericin was obtained from Sigma Aldrich and stored under like conditions. […] Ethanol (95%) was used as a solvent and diluent for all AbA compounds. Amphotericin B was tested from 0.06-64 μg/mL. Amphotericin B (Sigma Aldrich; St. Louis, Mo.; Cat No. A9528-100MG, Lot No. 120M4087) was dissolved and diluted with dimethylsulfoxide (DMSO; Sigma Aldrich; St. Louis, Mo.; Cat No. 472301 Lot No. SHBD2072V).
(§2) The solvents were added to the test agents and the stock solutions stood for approximately 1 hr at room temperature prior to use to auto sterilize. Stock solutions were prepared at 40× the desired top concentration in the test plate.
(§3) All of the test isolates were originally received from either the American Type Culture Collection (ATCC), clinical labs, or directly from Aureogen Biosciences. Organisms stored by Micromyx were cultured on agar medium appropriate to each organism. Colonies were picked by swab from the isolation plates and put into suspension in appropriate broth containing cryoprotectant. The suspensions were aliquoted into cryogenic vials and maintained at −80° C.
(§4) Prior to testing, Candida isolates were streaked from the frozen vials on Sabouraud dextrose agar. The yeast isolates were incubated for 48 hours at 35° C. before use. The fungal isolates were obtained from enumerated fungal stocks previously prepared at Micromyx and stored in phosphate buffered saline at 4° C.
(§5) Test Media. The medium employed for the MIC assay was RPMI-1640 medium from HyClone Laboratories (Logan, Utah; Lot No. AYB60287A). The medium was prepared according to Clinical and Laboratory Standards Institute (CLSI) guidelines (1, 2), and modified to include 0.002% Tween-80. Candida parapsilosis ATCC 22019 (MMX 2323) and Aspergillus fumigatus ATCC MYA-3626 (MMX 5280) were also tested without Tween-80 to provide data for the quality control of amphotericin B in accordance with CLSI (3) and to assess the effect of Tween-80 on the activity of the test agents.
(§6) Test Procedure. The MIC assay method followed the procedure described by CLSI (1, 2) and employed automated liquid handlers to conduct serial dilutions and liquid transfers. Automated liquid handlers included the Multidrop 384 (Labsystems, Helsinki, Finland), Biomek 2000 and Biomek FX (Beckman Coulter, Fullerton Calif.). The wells in columns 2-12 in standard 96-well microdilution plates (Costar 3795) were filled with 150 μl of the appropriate diluent (95% EtOH for investigational compounds, 100% DMSO for amphotericin B). These assay plates would become the ‘mother plates’ from which the assay ‘daughter plates’ would be prepared. The drugs (300 μL at 40× the desired top concentration in the test plates) were dispensed into the appropriate well in Column 1 of the mother plates. The Biomek 2000 was used to make two-fold serial dilutions through Column 11 in the “mother plate”. The wells of Column 12 contained no drug and served as the organism growth control wells.
(§7) The daughter plates were loaded with 185 μL per well on the Multidrop 384 with RPMI plus 0.002% Tween-80 or RPMI containing no Tween-80 for the testing of the two QC isolates. The daughter plates were prepared on the Biomek FX instrument which transferred 5 μL of drug solution from each well of a mother plate to each corresponding well of each daughter plate in a single step.
(§8) A standardized inoculum of each organism was prepared per CLSI methods (1, 2). For the Candida isolates, colonies were picked from the streak plate and a suspension was prepared in RPMI to equal a 0.5 McFarland standard. This suspension was diluted 1:100 in RPMI resulting in a final concentration of approximately 0.5-2.5×10^3 CFU/mL. […]

[2] = system: C. neoformans MMX 0634 ATCC 90112; experiment: MIC assay (CLSI microdilution); type: cell-based
Protocol: as §1, §2, §3, §4, §5, §6, §7, §8

[3] = system: C. parapsilosis MMX 2323 ATCC 22019; experiment: MIC assay (CLSI microdilution); type: cell-based, Candida parapsilosis
Protocol: as §1, §2, §3, §4, §5, §6, §7, §8

[4] = system: A. niger MMX 0624 ATCC 16888; experiment: MIC/MEC assay (CLSI microdilution); type: cell-based
Protocol: as §1, §2, §3, §4, §5, §6, §7, §8

A. flavus MMX 5948 = experiment: MIC/MEC assay (CLSI microdilution); type: cell-based
Protocol: as §1, §2, §3, §4, §5, §6, §7, §8

A. fumigatus MMX 5944 = experiment: MIC/MEC assay (CLSI microdilution); type: cell-based
Protocol: as §1, §2, §3, §4, §5, §6, §7, §8

[5] = system: A. fumigatus MMX 6781 ATCC MYA-4609; experiment: MIC/MEC assay (CLSI microdilution); type: cell-based
Protocol: as §1, §2, §3, §4, §5, §6, §7, §8

[6] = system: A. fumigatus MMX 6782 ATCC 13073; experiment: MIC/MEC assay (CLSI microdilution); type: cell-based
Protocol: as §1, §2, §3, §4, §5, §6, §7, §8

[7] = system: A. fumigatus MMX 5280 ATCC MYA-3626; experiment: MIC/MEC assay (CLSI microdilution); type: cell-based, Aspergillus fumigatus
Protocol: as §1, §2, §3, §4, §5, §6, §7, §8

[8] = RPMI plus 0.002% Tween-80, 48 hr
[9] = Aspergillus fumigatus, 48 h, RPMI plus 0.002% Tween-80, read-out: MIC

CC[C@@H](C)[C@@H]1NC(=O)[C@@H]2CCCN2C(=O)[C@H](Cc2ccccc2)N(C)C(=O)[C@H](Cc2ccccc2)NC(=O)[C@H](C(C)C)N(C)C(=O)[C@@H]([C@H](C)CC)OC(=O)[C@H](C(C)(C)O)N(C)C(=O)[C@H](CC(C)C)NC(=O)[C@H](C(C)C)N(C)C1=O [Aureobasidin A, reference compound] (cyclo(F[NMeF]P[aIle][NMeV]L[NMeVal(β-OH)][X34][NMeV]))
MIC ([1]; RPMI plus 0.002% Tween-80): ≤0.002 µg/mL
MIC ([2]; RPMI plus 0.002% Tween-80): 0.06 µg/mL
MIC ([3]; RPMI plus 0.002% Tween-80): 0.008 µg/mL
MIC ([3]; Without Tween-80): 0.25 µg/mL (≈ 0.227 µM)
MEC [4, 8]: >64/>64 μg/mL
MIC [4, 8]: >64/>64 μg/mL
MEC (A. flavus MMX 5948; [8]): >64/>64 μg/mL
MIC (A. flavus MMX 5948; [8]): >64/>64 μg/mL
MEC (A. fumigatus MMX 5944; [8]): 2 µg/mL
MIC (A. fumigatus MMX 5944; [8]): > 64 µg/mL
MEC [5, 8]: >64/>64 μg/mL
MIC [5, 8]: >64/>64 μg/mL
MEC [6, 8]: 2 µg/mL
MIC [6, 8]: > 64 µg/mL
MEC [7, 8]: >64/>64 μg/mL
MIC [7, 8]: >64/>64 μg/mL
MEC ([7]; Without Tween-80, 48 hr): >64/>64 μg/mL
MIC ([7]; Without Tween-80, 48 hr): >64/>64 μg/mL

CC[C@H](C)[C@@H]1NC(=O)[C@@H]2CCCN2C(=O)[C@H](Cc2cccc(-c3ccc(F)cc3)c2)N(C)C(=O)[C@H](Cc2ccccc2)NC(=O)[C@H](C(C)C)N(C)C(=O)[C@@H]([C@@H](C)CC)OC(=O)[C@H](C(C)(C)O)N(C)C(=O)[C@H](CC(C)C)NC(=O)[C@H](C(C)C)N(C)C1=O [Compound 1] (cyclo(F[X29]PI[NMeV]L[NMeVal(β-OH)][Hmp(2R,3S)][NMeV]))
MIC ([1]; Candida albicans, ATCC10231, RPMI plus 0.002% Tween-80, read-out: MIC): 0.015 µg/mL
MIC ([2]; Cryptococcus neoformans, ATCC90112, RPMI plus 0.002% Tween-80, read-out: MIC): 0.12 µg/mL
MIC ([3]; ATCC22019, RPMI plus 0.002% Tween-80, read-out: MIC): 0.12 µg/mL
MIC ([3]; ATCC22019, Without Tween-80, read-out: MIC): 1 µg/mL (≈ 0.836 µM)
minimal effective concentration ([4]; Aspergillus niger, ATCC16888, 48 h, RPMI plus 0.002% Tween-80, read-out: MEC): 0.25 µg/mL
MIC ([4]; Aspergillus niger, ATCC16888, 48 h, RPMI plus 0.002% Tween-80, read-out: MIC): 0.25 µg/mL
minimal effective concentration (A. flavus MMX 5948; Aspergillus flavus, MMX5948, 48 h, RPMI plus 0.002% Tween-80): 1 µg/mL
MIC (A. flavus MMX 5948; Aspergillus flavus, MMX5948, 48 h, RPMI plus 0.002% Tween-80, read-out: MIC): > 64 µg/mL
minimal effective concentration (A. fumigatus MMX 5944; Aspergillus fumigatus, MMX5944, 48 h, RPMI plus 0.002% Tween-80): 0.5 µg/mL
MIC (A. fumigatus MMX 5944; Aspergillus fumigatus, MMX5944, 48 h, RPMI plus 0.002% Tween-80, read-out: MIC): > 64 µg/mL
MIC [5, 9]: > 64 µg/mL
minimal effective concentration ([5]; Aspergillus fumigatus, RPMI plus 0.002% Tween-80, 48 hr): 0.5 µg/mL
minimal effective concentration ([6]; Aspergillus fumigatus, ATCC13073, 48 h, RPMI plus 0.002% Tween-80, read-out: MEC): 0.5 µg/mL
MIC ([6]; Aspergillus fumigatus, ATCC13073, 48 h, RPMI plus 0.002% Tween-80, read-out: MIC): > 64 µg/mL
minimal effective concentration ([7]; Aspergillus fumigatus, 48 h, RPMI plus 0.002% Tween-80, read-out: MEC): 0.5 µg/mL
MIC [7, 9]: > 64 µg/mL
minimal effective concentration ([7]; Aspergillus fumigatus, 48 h, Without Tween-80, read-out: MEC): 2 µg/mL
MIC ([7]; Aspergillus fumigatus, 48 h, Without Tween-80, read-out: MIC): > 64 µg/mL
